Measurements as given in patent US20070225213A1, “Nucleic acid carriers for delivery of therapeutic agents” (priority 2006, published 2007).

Tested on: 3T3
Assay: Cell uptake by MTN fluorescence EX620/EM680 (Examples 10 and 13, EX051605)
Assay type: cell-based, mouse
Conditions: 10% w/w loading in DNA
Experimental: Materials: HSGDNA, MTN, ODNAS1116 (phosphorothioated, single stranded DNA, and Beta-cyclodextrin polymer (BCD-SBE, KKBIOMED Inc.) were previously prepared in water at 10 mg/ml, 1 mg/ml, 0.95 mg/ml, and 10 mg/ml respectively.
Procedure: For NAC-MTN, combined 37 ul HSGDNA (herring genomic DNA, Promega Inc.), 1426 ul HBSS( Hank's buffered saline, Sigma-Aldrich), with 37 ul of MTN, followed by 1500 ul 2× DMEM media to give 3 ml final and 24 uM (24 micro-molar) MTN and 10% w/w drug loading of MTN. For NAC-MTN (AR1505) combined 62 ul of HSDNA (deg. herring sperm DNA, Sigma) with 2377 ul HBSS, 61.7 ul MTN, 2500 ul 2× media to give 5 ml final and 24 uM MTN and 10% w/w drug loading of MTN to HSDNA. […]
Plate#1 Media was aspirated and cells treated with 100 ul of either NAC-MTN, CD-MTN, or MTN at 24 uM MTN final or 12.3 ug/ml MTN in all samples. Samples containing MTN were incubated 4 hours, removed, and fluorescence taken at EX620/EM680. […]
Samples were incubated 4 hours, removed, and MTN fluorescence taken at EX620/EM680. […] Average MTN fluorescence was averaged from 6 wells. For each cell type, MTN fluorescence was highest in MTN treated cells, followed by CD-MTN, and lowest in NAC-MTN. […]
PLATE#2: Dispensed 50 ul from source plate into plate #2 to give 150 ul final vol 4.1 ug/ml, 8 uMfinal per well, pre-read fluorescence w samples (bkgd) incubated 5 hr, removed, replaced w/ media, read fluor. […]

O=C1c2c(O)ccc(O)c2C(=O)c2c(NCCNCCO)ccc(NCCNCCO)c21 [MTN, mitoxantrone]
% reduction in fluorescence relative to MTN alone (MTN = 0%) (Plate#1, 24 uM MTN, 4 hours): 0%
% reduction in fluorescence relative to MTN alone (MTN = 0%) (Plate#2, 8 uM MTN): 0%
